The results in this text go back to ChEMBL document CHEMBL6103646 (J Med Chem, 2025).

The source made the active and inactive calls. No cut-off for these calls is given here.

Data set [1] is described as follows: Stability of compound in human whole blood assessed as half-life at 1 uM measured upto 40 mins by LC-MS/MS analysis. In kind it is ADME, tissue-based.
Data set [2] has as its target Histone deacetylase 2 (Homo sapiens) (UniProt Q92769). Kind of data set: Inhibition of HDAC2 in human MM1.S cells assessed as increase in acetylated histone H3 level at 1 uM incubated for 6 hrs by Western blot analysis. It is filed as cell-based.
The target of data set [3] is Histone deacetylase 1 (Homo sapiens) (UniProt Q13547). Kind of data set: Inhibition of HDAC1 in human MM1.S cells assessed as increase in acetylated histone H3 level at 1 uM incubated for 6 hrs by Western blot analysis. In kind it is cell-based.
Chain of Histone deacetylase 1 (Homo sapiens) (Q13547 whole entry): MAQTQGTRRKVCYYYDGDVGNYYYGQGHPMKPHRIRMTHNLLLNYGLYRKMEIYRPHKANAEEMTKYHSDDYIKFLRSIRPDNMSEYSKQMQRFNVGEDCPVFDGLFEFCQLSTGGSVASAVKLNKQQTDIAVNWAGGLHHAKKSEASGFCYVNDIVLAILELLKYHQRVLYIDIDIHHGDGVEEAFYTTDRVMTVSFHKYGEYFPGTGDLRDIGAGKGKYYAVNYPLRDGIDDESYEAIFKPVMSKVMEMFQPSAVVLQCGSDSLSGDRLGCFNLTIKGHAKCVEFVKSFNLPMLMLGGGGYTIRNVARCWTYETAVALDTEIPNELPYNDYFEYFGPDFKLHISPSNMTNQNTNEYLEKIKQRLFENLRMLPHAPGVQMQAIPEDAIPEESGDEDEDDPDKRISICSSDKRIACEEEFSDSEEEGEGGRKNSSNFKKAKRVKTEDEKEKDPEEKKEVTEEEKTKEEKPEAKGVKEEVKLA
Data set [4] has as its target Protein cereblon/Protein deacetylase HDAC6 (Homo sapiens) (UniProt Q9UBN7+Q96SW2). Kind of data set: PROTAC activity at CRBN/HDAC6 in human MM1.S cells assessed as induction of HDAC6 degradation at 0.1 to 1 uM by Western blot analysis. It is filed as cell-based. As to conditions: dose 0.1-1 µM.
The target of a further data set is T1, Histone deacetylase 11 (Homo sapiens, UniProt Q96DB2).
T1 sequence (Q96DB2 whole entry): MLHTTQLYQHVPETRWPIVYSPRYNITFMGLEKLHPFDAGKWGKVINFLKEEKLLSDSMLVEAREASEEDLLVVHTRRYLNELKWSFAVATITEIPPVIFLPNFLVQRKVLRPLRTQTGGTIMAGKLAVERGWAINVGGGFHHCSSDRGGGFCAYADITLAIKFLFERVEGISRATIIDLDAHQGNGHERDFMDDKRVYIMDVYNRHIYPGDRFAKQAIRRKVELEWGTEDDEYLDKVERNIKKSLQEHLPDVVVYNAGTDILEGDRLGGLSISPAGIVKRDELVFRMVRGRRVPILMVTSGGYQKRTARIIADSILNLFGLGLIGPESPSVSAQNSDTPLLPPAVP
Put plainly: Inhibition of HDAC11 (unknown origin) using FAM-labeled peptide substrate by […] mobility shift assay.

The nature of data set [5]: Selectivity index, ratio of IC50 for inhibition of HDAC8 (unknown origin) to IC50 for inhibition of HDAC6 (unknown origin).
For the next data set, the target named is T2, Histone deacetylase 8 (Homo sapiens, UniProt Q9BY41).
T2 sequence (Q9BY41 whole entry): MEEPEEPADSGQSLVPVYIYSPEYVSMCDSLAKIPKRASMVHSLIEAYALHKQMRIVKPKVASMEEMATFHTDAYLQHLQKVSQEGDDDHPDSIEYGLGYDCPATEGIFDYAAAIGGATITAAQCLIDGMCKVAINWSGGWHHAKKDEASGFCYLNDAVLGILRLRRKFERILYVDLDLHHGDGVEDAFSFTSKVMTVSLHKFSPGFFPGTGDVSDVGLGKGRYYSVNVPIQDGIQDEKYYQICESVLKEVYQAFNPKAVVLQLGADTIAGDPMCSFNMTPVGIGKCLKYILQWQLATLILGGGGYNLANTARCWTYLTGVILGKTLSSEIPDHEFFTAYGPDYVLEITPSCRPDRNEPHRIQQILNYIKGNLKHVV
Kind of data set: Inhibition of HDAC8 (unknown origin) using FAM-labeled peptide substrate by […] mobility shift assay.

The next data set has as its system N2a. Kind of data set: Antiproliferative activity against mouse Neuro2a cells assessed as effect on cell viability by CellTiter-Glo assay. It is filed as functional, cell-based.
Another data set has as its system MM1.S. Put plainly: Antiproliferative activity against human MM1.S cells assessed as reduction in cell viability measured after 72 hrs by CellTiter-Glo assay. It is filed as functional, cell-based.
Data set [6] concerns the target Protein cereblon/Protein deacetylase HDAC6 (Mus musculus) (UniProt Q9Z2V5+Q8C7D2). Put plainly: In vivo PROTAC activity at CRBN/HDAC6 in female C57BL/6J mouse assessed as reduction in HDAC6 protein level in liver at 5 mg/kg, iv measured after 6 hrs by Western blot analysis relative to control. In kind it is functional, organism-based. Set-up: scale not given: the % may be the effect or the level left.

Chain of Histone deacetylase 2 (Homo sapiens) (Q92769 whole entry): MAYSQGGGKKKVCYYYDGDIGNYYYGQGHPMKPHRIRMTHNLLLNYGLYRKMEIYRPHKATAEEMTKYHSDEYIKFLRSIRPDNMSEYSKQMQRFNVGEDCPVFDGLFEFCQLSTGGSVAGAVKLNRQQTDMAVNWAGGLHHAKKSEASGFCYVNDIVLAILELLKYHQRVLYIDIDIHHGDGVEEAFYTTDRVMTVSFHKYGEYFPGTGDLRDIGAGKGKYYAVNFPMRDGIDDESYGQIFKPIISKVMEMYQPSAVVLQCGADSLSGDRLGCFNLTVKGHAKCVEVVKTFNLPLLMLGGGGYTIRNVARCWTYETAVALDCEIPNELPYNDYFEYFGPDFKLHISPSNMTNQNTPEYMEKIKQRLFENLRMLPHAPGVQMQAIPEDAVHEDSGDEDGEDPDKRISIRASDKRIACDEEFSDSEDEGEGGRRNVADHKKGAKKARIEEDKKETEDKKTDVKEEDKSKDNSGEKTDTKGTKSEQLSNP
Chain of Protein cereblon/Protein deacetylase HDAC6 (Homo sapiens) (Q96SW2 whole entry, looked up): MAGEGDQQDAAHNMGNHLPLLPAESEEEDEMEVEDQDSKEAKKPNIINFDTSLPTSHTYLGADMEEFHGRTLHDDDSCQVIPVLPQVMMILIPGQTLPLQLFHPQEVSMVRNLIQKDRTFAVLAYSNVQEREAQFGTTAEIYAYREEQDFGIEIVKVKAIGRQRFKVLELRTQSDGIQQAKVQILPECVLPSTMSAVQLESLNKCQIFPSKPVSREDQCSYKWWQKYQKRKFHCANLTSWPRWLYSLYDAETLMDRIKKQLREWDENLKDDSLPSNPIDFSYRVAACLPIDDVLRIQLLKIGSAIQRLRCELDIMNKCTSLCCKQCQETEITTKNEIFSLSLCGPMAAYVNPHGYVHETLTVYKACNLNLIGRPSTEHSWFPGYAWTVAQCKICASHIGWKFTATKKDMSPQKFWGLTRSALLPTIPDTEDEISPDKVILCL
Chain of Protein cereblon/Protein deacetylase HDAC6 (Homo sapiens) (Q9UBN7 whole entry, looked up): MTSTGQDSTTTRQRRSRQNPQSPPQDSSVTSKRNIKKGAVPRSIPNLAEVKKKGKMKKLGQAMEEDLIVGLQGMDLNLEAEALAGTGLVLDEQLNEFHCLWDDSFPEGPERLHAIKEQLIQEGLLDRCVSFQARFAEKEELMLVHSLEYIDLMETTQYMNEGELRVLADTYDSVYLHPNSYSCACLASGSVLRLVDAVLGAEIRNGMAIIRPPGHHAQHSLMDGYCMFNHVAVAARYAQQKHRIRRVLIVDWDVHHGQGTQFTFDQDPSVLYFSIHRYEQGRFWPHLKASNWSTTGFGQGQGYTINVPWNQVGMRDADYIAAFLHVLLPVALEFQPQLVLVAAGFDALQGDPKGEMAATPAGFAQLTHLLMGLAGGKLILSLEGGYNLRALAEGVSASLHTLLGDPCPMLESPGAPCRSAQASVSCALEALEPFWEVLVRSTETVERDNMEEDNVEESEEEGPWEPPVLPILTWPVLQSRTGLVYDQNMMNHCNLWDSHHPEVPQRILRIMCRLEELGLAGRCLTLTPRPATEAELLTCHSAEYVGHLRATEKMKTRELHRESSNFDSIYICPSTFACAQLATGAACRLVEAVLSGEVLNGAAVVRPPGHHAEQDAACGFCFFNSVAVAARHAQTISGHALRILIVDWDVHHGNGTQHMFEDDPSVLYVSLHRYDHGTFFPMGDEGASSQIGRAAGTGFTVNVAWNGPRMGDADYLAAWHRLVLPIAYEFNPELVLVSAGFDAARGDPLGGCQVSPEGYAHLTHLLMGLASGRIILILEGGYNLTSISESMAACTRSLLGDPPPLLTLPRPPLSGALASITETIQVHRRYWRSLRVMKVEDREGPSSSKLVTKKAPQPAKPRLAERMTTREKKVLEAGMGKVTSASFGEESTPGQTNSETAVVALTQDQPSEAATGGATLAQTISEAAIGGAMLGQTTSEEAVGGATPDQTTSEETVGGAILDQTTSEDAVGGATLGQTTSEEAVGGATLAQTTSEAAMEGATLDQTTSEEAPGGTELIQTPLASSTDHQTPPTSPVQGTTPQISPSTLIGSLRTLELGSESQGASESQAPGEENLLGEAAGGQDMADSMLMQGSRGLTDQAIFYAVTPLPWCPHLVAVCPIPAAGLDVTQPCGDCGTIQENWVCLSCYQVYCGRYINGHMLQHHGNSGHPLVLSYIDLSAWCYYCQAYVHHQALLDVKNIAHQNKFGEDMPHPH
Chain of Protein cereblon/Protein deacetylase HDAC6 (Mus musculus) (Q8C7D2 whole entry, looked up): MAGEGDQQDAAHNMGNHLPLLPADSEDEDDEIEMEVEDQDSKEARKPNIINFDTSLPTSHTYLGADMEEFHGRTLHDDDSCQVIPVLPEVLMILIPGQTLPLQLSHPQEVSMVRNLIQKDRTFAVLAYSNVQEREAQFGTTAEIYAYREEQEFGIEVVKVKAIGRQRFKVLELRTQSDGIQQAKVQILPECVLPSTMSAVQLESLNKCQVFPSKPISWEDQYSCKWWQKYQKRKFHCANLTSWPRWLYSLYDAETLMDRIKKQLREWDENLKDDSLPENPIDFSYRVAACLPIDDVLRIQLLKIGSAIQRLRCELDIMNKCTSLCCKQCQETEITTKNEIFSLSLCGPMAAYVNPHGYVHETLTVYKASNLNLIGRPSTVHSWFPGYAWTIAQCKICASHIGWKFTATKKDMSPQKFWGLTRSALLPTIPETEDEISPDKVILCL
Chain of Protein cereblon/Protein deacetylase HDAC6 (Mus musculus) (Q9Z2V5 whole entry, looked up): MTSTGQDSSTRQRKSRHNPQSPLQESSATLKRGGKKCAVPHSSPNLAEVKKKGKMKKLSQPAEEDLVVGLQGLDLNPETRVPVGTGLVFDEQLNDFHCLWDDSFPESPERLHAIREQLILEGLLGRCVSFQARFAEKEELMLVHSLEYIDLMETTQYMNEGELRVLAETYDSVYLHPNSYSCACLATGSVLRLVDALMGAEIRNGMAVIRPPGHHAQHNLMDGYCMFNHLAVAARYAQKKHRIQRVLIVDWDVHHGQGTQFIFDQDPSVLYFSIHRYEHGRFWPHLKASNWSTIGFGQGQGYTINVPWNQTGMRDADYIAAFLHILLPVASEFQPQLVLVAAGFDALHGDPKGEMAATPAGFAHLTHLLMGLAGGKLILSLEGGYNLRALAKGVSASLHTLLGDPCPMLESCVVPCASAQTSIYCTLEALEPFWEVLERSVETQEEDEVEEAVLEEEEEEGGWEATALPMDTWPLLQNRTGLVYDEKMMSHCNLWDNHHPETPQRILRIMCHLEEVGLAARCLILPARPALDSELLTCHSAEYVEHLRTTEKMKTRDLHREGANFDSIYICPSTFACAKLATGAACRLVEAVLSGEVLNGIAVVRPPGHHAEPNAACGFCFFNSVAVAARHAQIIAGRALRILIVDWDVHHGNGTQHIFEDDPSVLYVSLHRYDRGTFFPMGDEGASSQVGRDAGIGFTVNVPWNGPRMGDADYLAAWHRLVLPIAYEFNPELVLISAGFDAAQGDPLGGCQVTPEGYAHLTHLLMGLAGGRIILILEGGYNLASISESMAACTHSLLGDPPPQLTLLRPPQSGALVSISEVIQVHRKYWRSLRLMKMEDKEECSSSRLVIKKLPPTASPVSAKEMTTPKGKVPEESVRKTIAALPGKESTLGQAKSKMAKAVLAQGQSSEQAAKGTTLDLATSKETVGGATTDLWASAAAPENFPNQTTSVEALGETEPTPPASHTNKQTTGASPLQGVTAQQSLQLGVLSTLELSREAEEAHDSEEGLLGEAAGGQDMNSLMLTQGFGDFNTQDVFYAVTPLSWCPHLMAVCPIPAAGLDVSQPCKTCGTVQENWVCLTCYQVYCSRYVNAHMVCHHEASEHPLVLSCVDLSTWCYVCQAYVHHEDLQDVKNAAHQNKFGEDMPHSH

On to `O=C1CCC(N2C(=O)c3cccc(NCCN(Cc4ccc(C(=O)NO)cc4)Cc4cccnc4)c3C2=O)C(=O)N1` (stereo unspecified), for which, in [1], the half-life at 1 µM was 1.29 h. Moreover, the inhibition result in data set [2] and in data set [3] was “inactive” each time.

For `O=C1CCC(N2C(=O)c3cccc(NCCOCCn4cc(CCCCN(Cc5ccc(C(=O)NO)cc5)Cc5cccnc5)nn4)c3C2=O)C(=O)N1` (stereo unspecified), the half-life at 1 µM in [1] came to 1.01 h. Further, the inhibition result in data set [2] and in data set [3] was “inactive” in each case.

For `O=C1CCC(N2C(=O)c3cccc(NCCCCCCn4cc(CN(Cc5ccc(C(=O)NO)cc5)Cc5cccnc5)nn4)c3C2=O)C(=O)N1` (stereo unspecified), in data set [1], the half-life at 1 µM turned out to be 0.704 h. The inhibition result in data set [2] and in [3] was “inactive” in each case.

As to `CN1C(=O)CCC(N2C(=O)c3cccc(NCCOCCOCCn4cc(CN(Cc5ccc(C(=O)NO)cc5)Cc5cccnc5)nn4)c3C2=O)C1=O` (stereo unspecified), the outcome in data set [4] was inactive.

`O=C1CCC(N2C(=O)c3cccc(NCCCCCCn4cc(CCCCN(Cc5ccc(C(=O)NO)cc5)Cc5cccnc5)nn4)c3C2=O)C(=O)N1` (stereo unspecified): the half-life at 1 µM in data set [1] stood at 0.762 h. In addition, the inhibition result in data set [2] and in data set [3] was “inactive” each time.

In the case of `O=C1CCC(N2C(=O)c3cccc(NCCOCCOCCN(Cc4ccc(C(=O)NO)cc4)Cc4cccnc4)c3C2=O)C(=O)N1` (stereo unspecified), the half-life at 1 µM in data set [1] was found to be 1.06 h. The inhibition entry in data set [2] and in data set [3] was “inactive” throughout.

As to `O=C1CCC(N2C(=O)c3cccc(NCCOCCOCCn4cc(CCCCN(Cc5ccc(C(=O)NO)cc5)Cc5cccnc5)nn4)c3C2=O)C(=O)N1` (stereo unspecified), in data set [1], the half-life at 1 µM stood at 0.864 h. The inhibition entry in data set [2] and in data set [3] was “inactive” in each case.

With `O=C1CCC(N2C(=O)c3cccc(NCCCn4cc(CN(Cc5ccc(C(=O)NO)cc5)Cc5cccnc5)nn4)c3C2=O)C(=O)N1` (stereo unspecified), in [1], the half-life at 1 µM is 0.738 h. The inhibition result in [2] and in data set [3] was “inactive” throughout.

For `O=C1CCC(N2C(=O)c3cccc(NCCOCCOCCn4cc(CN(Cc5ccc(C(=O)NO)cc5)Cc5cccnc5)nn4)c3C2=O)C(=O)N1` (stereo unspecified), the half-life at 1 µM in [1] came out at 0.62 h. The IC50 on Histone deacetylase 11 was > 10000 nM. Moreover, the inhibition result in [2] and in [3] was “inactive” throughout.

Consider `O=C(NO)c1ccc(CN(Cc2cccnc2)S(=O)(=O)c2cc(F)c(F)c(F)c2F)cc1`, for which, in data set [5], the Ratio IC50 came out at 158. For the same compound, the IC50 was 31.6 nM at Histone deacetylase 8 and > 1000 nM on Histone deacetylase 11.

Turning to `O=C1CCC(N2C(=O)c3cccc(NCCCn4cc(CCCCN(Cc5ccc(C(=O)NO)cc5)Cc5cccnc5)nn4)c3C2=O)C(=O)N1` (stereo unspecified), the outcome in the data set with N2a and in the data set with MM1.S was inactive. Further, the half-life at 1 µM in data set [1] was 1.05 h. Moreover, the inhibition result in data set [2] and in data set [3] was “inactive” in each case.

For the compound `O=C1CCC(N2C(=O)c3cccc(NCCCCN(Cc4ccc(C(=O)NO)cc4)Cc4cccnc4)c3C2=O)C(=O)N1` (stereo unspecified), in data set [1], the half-life at 1 µM worked out at 1.45 h. The inhibition result in data set [2] and in [3] was “inactive” each time.

On to `O=C1CCC(N2C(=O)c3cccc(NCCOCCn4cc(CN(Cc5ccc(C(=O)NO)cc5)Cc5cccnc5)nn4)c3C2=O)C(=O)N1` (stereo unspecified), for which the result with N2a was inactive. In addition, in data set [1], the half-life at 1 µM is 1.33 h. Also, the inhibition result in data set [2] and in data set [3] was “inactive” each time. In addition, the Activity in data set [6] was 60%; with MM1.S, “Active; Minimal Effect Observed Compared To To-317,Ricolinostat An D Citarinostat”.

As to `O=C1CCC(N2C(=O)c3cccc(NCCOCCN(Cc4ccc(C(=O)NO)cc4)Cc4cccnc4)c3C2=O)C(=O)N1` (stereo unspecified), the half-life at 1 µM in [1] stood at 1.36 h. For the same compound, the inhibition entry in [2] and in [3] was “inactive” throughout.
